Among the test systems are U251 CNS; UACC-257 melanoma; OVCAR-8 ovarian; MALME-3M melanoma; A498 renal; NCI/ADR-RES ovarian; SW-620 colon; HL-60(TB) leukemia; EKVX NSCLC; HCT-116 colon.
Test in all cases: NCI anticancer screen, dose series, 48 h

Experimental findings from PubChem BioAssay (NCI) are described below.

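Tested at 5 concentrations; 48 h exposure; 96-well plates; endpoints linearly interpolated, else capped at highest concentration. Abbreviation: GI50, concentration required for 50% inhibition of growth. TGI: total growth inhibition.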

On to `COc1cc(C2c3cc4c(cc3[C@H](NC(=O)c3cccs3)C3COC(=O)[C@H]23)OCO4)cc(OC)c1OC` (stereo partly specified), for which the TGI is 0.865 µM in the assay on U251 CNS; above 100 µM with UACC-257 melanoma; 94.4 µM in the assay with OVCAR-8 ovarian; above 100 µM in the assay on MALME-3M melanoma; 0.0481 µM in the assay with A498 renal; 0.459 µM in the assay with NCI/ADR-RES ovarian. Moreover, the TGI with SW-620 colon is above 100 µM; in the assay on HL-60(TB) leukemia, below 0.0251 µM; in the assay on EKVX NSCLC it was above 100 µM; in the assay on HCT-116 colon, 1.05 µM.

Consider `C[As](C)Sc1ccnc(S[As](C)C)n1`, for which the GI50 in the assay on U251 CNS was 7.03 µM; in the assay on UACC-257 melanoma, 5 µM; with OVCAR-8 ovarian, 5.51 µM; in the assay with MALME-3M melanoma, 1.66 µM; in the assay with A498 renal, 26 µM; in the assay with NCI/ADR-RES ovarian, 7.72 µM. In addition, the GI50 is 1.4 µM with SW-620 colon, 1.13 µM in the assay with HL-60(TB) leukemia, 11.2 µM in the assay on EKVX NSCLC and 2.13 µM in the assay with HCT-116 colon. Further, the TGI is above 100 µM in the assay on U251 CNS; 27.1 µM with UACC-257 melanoma; above 40.1 µM in the assay with OVCAR-8 ovarian; 11.3 µM with MALME-3M melanoma; above 100 µM with A498 renal; above 25.9 µM with NCI/ADR-RES ovarian. Also, the TGI was 19.5 µM with SW-620 colon, 35.8 µM in the assay on EKVX NSCLC and above 34.8 µM in the assay on HCT-116 colon.

Take `O=C(O)c1cc(N/C=C2\C(=O)c3ccccc3OC2O)ccc1O` (stereo unspecified): the GI50 in the assay with U251 CNS is 18 mg/L; in the assay with UACC-257 melanoma, 33.4 mg/L; with OVCAR-8 ovarian, 27.4 mg/L; in the assay with MALME-3M melanoma, 7.59 mg/L; with A498 renal, 35.8 mg/L; in the assay on NCI/ADR-RES ovarian, 21.1 mg/L. Besides, the GI50 was 23.4 mg/L with SW-620 colon, 9.18 mg/L with HL-60(TB) leukemia, 24.3 mg/L in the assay on EKVX NSCLC and 19.8 mg/L with HCT-116 colon. For the same compound, the TGI with U251 CNS is 43.6 mg/L; in the assay on UACC-257 melanoma it was 93.7 mg/L; in the assay on OVCAR-8 ovarian, above 150 mg/L; with MALME-3M melanoma it was 40.8 mg/L; with A498 renal, 77.5 mg/L; in the assay on NCI/ADR-RES ovarian, 82.8 mg/L. Moreover, the TGI was 54.2 mg/L in the assay with SW-620 colon, above 150 mg/L in the assay with HL-60(TB) leukemia, 78.5 mg/L with EKVX NSCLC and 51 mg/L with HCT-116 colon.

For `COc1cc(C(=O)NC2CCN(C)CC2)ccc1Nc1ncc2c(n1)N(C1CCCC1)CC(F)(F)C(=O)N2C`, the GI50 with U251 CNS is below 0.01 µM; with UACC-257 melanoma, 0.222 µM; with OVCAR-8 ovarian it was below 0.01 µM; in the assay with MALME-3M melanoma, 2.64 µM; in the assay on A498 renal, 0.028 µM; in the assay on NCI/ADR-RES ovarian, 0.964 µM. Moreover, the GI50 in the assay with SW-620 colon was below 0.01 µM; with HL-60(TB) leukemia, below 0.01 µM; in the assay with EKVX NSCLC it was 0.245 µM; with HCT-116 colon it was below 0.0118 µM. Moreover, the TGI in the assay with U251 CNS stood at 12.9 µM; in the assay with UACC-257 melanoma, 6.61 µM; in the assay with OVCAR-8 ovarian it was 18.3 µM; with MALME-3M melanoma it was 10.5 µM; in the assay on A498 renal, 0.272 µM; in the assay on NCI/ADR-RES ovarian, 15.7 µM. Also, the TGI stood at 10.4 µM in the assay with SW-620 colon, 0.0223 µM in the assay on HL-60(TB) leukemia, 17.5 µM with EKVX NSCLC and 11.2 µM with HCT-116 colon.

For `Fc1ccc(CNc2c3ccccc3nc3ccccc23)cc1`, the GI50 was 3.02 µM in the assay with U251 CNS; 2.59 µM in the assay with UACC-257 melanoma; 2.64 µM in the assay with OVCAR-8 ovarian; 2.18 µM in the assay with MALME-3M melanoma; 1.36 µM in the assay with A498 renal; 2.33 µM in the assay on NCI/ADR-RES ovarian. Further, the GI50 in the assay on SW-620 colon is 1.95 µM; in the assay on HL-60(TB) leukemia it was 2.9 µM; with EKVX NSCLC it was 2.61 µM; in the assay with HCT-116 colon, 2.12 µM. For the same compound, the TGI worked out at 14.1 µM with U251 CNS; 7.02 µM with UACC-257 melanoma; 12.5 µM with OVCAR-8 ovarian; 5.48 µM in the assay with MALME-3M melanoma; 3.24 µM in the assay on A498 renal; 8.07 µM in the assay on NCI/ADR-RES ovarian. For the same compound, the TGI with SW-620 colon came to 6.84 µM; with HL-60(TB) leukemia it was 8.97 µM; with EKVX NSCLC it was 11.4 µM; with HCT-116 colon, 11.8 µM.

As for `CN(CCCCCl)P(=O)(OCc1ccc([N+](=O)[O-])o1)C(F)(F)c1ccc(CC(=O)N[C@@H](CC(=O)O)C(=O)N[C@@H](Cc2ccc(C(F)(F)P(=O)(OCc3ccc([N+](=O)[O-])o3)N(C)CCCCCl)cc2)C(N)=O)cc1` (stereo partly specified), the GI50 was 50.8 µM in the assay with U251 CNS; above 100 µM with UACC-257 melanoma; above 100 µM with OVCAR-8 ovarian; above 100 µM with MALME-3M melanoma; 33 µM in the assay on A498 renal; above 100 µM in the assay on NCI/ADR-RES ovarian. For the same compound, the GI50 was 81.9 µM in the assay on SW-620 colon, 28 µM with HL-60(TB) leukemia and 67.7 µM with EKVX NSCLC. Further, the TGI in the assay with U251 CNS is above 100 µM; in the assay on UACC-257 melanoma it was above 100 µM; with OVCAR-8 ovarian, above 100 µM; in the assay on MALME-3M melanoma, above 100 µM; with A498 renal, 87.5 µM; in the assay with NCI/ADR-RES ovarian, above 100 µM. In addition, the TGI was above 100 µM with SW-620 colon, 64.5 µM with HL-60(TB) leukemia and above 100 µM in the assay on EKVX NSCLC.

`COc1ccccc1CNCCCN1C(=O)c2ccc3c4c(ccc(c24)C1=O)C(=O)N(CCCNCCCCNCCCCN)C3=O`: the GI50 in the assay on U251 CNS is 1.07 µM; with UACC-257 melanoma, 0.857 µM; in the assay on OVCAR-8 ovarian it was 0.59 µM; with MALME-3M melanoma, 0.971 µM; in the assay with A498 renal it was 0.472 µM; in the assay with NCI/ADR-RES ovarian, 12.8 µM. In addition, the figures for the GI50 in the assay on SW-620 colon, with HL-60(TB) leukemia and in the assay with HCT-116 colon were 0.417 µM, 1.28 µM and 0.407 µM, respectively. The TGI with U251 CNS was 3.25 µM; in the assay on UACC-257 melanoma, 2.22 µM; in the assay on OVCAR-8 ovarian, 6.59 µM; in the assay with MALME-3M melanoma, 2.48 µM; in the assay on A498 renal, 4.51 µM; with NCI/ADR-RES ovarian, above 100 µM. Further, the TGI in the assay on SW-620 colon was 10.1 µM; with HL-60(TB) leukemia, 5.71 µM.

On to `Nc1ncnc2c1c(-c1cccc(OCc3ccccc3)c1)cn2C1CC(CN2CCCC2)C1` (stereo unspecified), for which the GI50 in the assay on U251 CNS was 1.51 µM; in the assay with UACC-257 melanoma, 0.867 µM; in the assay on OVCAR-8 ovarian, 4.74 µM; in the assay with MALME-3M melanoma, 2.06 µM; in the assay on A498 renal, 1.72 µM; in the assay on NCI/ADR-RES ovarian, 5.01 µM. The GI50 was 1.03 µM in the assay on SW-620 colon, 0.426 µM in the assay on HL-60(TB) leukemia and 1.38 µM with HCT-116 colon. Besides, the TGI was 2.96 µM in the assay on U251 CNS; 2.18 µM in the assay on UACC-257 melanoma; 18 µM in the assay with OVCAR-8 ovarian; 5.7 µM in the assay on MALME-3M melanoma; 4.66 µM with A498 renal; 21.5 µM in the assay on NCI/ADR-RES ovarian. The TGI in the assay on SW-620 colon came to 3.53 µM; in the assay with HL-60(TB) leukemia it was 3.03 µM; with HCT-116 colon, 5.34 µM.

For `Cn1cc(C2=C(c3c4n(c5ccccc35)CC(CN)C4)C(=O)NC2=O)c2ccccc21` (stereo unspecified), the GI50 with U251 CNS was 2.61 µM; with UACC-257 melanoma, 3.92 µM; in the assay with OVCAR-8 ovarian, 3.92 µM; in the assay with MALME-3M melanoma, 4.17 µM; in the assay on A498 renal it was 2.96 µM; in the assay on NCI/ADR-RES ovarian it was 10.1 µM. Also, the GI50 in the assay on SW-620 colon is 2.98 µM; in the assay with HL-60(TB) leukemia, 3.35 µM; in the assay on HCT-116 colon, 2.32 µM. For the same compound, the TGI came out at 5.77 µM in the assay on U251 CNS; 7.8 µM with UACC-257 melanoma; 8.93 µM in the assay on OVCAR-8 ovarian; 8.52 µM in the assay with MALME-3M melanoma; 6.4 µM with A498 renal; 25 µM in the assay with NCI/ADR-RES ovarian. Also, the TGI was 6.84 µM in the assay with SW-620 colon, 9.91 µM in the assay on HL-60(TB) leukemia and 6.22 µM with HCT-116 colon.

Turning to `COC1OCC(OS(=O)(=O)c2ccc(C)cc2)C(OC(=O)c2ccccc2)C1OC(=O)c1ccccc1` (stereo unspecified), the GI50 in the assay with U251 CNS is 4.72 µM; in the assay on OVCAR-8 ovarian, above 100 µM; with MALME-3M melanoma, 13.7 µM; with A498 renal, 4.53 µM; with NCI/ADR-RES ovarian, 3.64 µM; in the assay on SW-620 colon, 3.08 µM. Further, the GI50 is 4.08 µM in the assay with HL-60(TB) leukemia, 45.3 µM in the assay on EKVX NSCLC and 3.45 µM in the assay with HCT-116 colon. Moreover, the TGI is above 100 µM in the assay with U251 CNS; above 100 µM in the assay with OVCAR-8 ovarian; above 100 µM with MALME-3M melanoma; 90.9 µM with A498 renal; above 100 µM in the assay with NCI/ADR-RES ovarian; above 100 µM in the assay with SW-620 colon. Further, the TGI with HL-60(TB) leukemia, in the assay on EKVX NSCLC and in the assay with HCT-116 colon was above 100 µM throughout.

In the case of `C#CC[C@@H]1C[C@]2(C)[C@H]3CC[C@@H]4[C@H]5[C@H](C(=C)C)CC[C@]5(C(=O)O)CC[C@@]4(C)[C@]3(C)CC[C@H]2C(C)(C)[C@H]1O`, the GI50 with U251 CNS is 1.57 µM; in the assay on UACC-257 melanoma, 3.73 µM; in the assay on OVCAR-8 ovarian, 2.17 µM; in the assay on MALME-3M melanoma, 2.53 µM; with A498 renal, 1.88 µM; with NCI/ADR-RES ovarian it was 2.03 µM. Further, the values for the GI50 with SW-620 colon, with HL-60(TB) leukemia and in the assay with EKVX NSCLC were 1.98 µM, 2.57 µM and 2.63 µM, respectively. The TGI with U251 CNS was 3.03 µM; in the assay with UACC-257 melanoma it was 13.4 µM; in the assay on OVCAR-8 ovarian, 4.81 µM; in the assay with MALME-3M melanoma it was 5.83 µM; with A498 renal it was 4.19 µM; in the assay on NCI/ADR-RES ovarian it was 5.24 µM. Besides, the figures for the TGI in the assay with SW-620 colon, in the assay with HL-60(TB) leukemia and in the assay on EKVX NSCLC were 4.28 µM, above 100 µM and 10.6 µM, respectively.
